Each structure is given as a SMILES string. Several values for one entry are separate records, joined by “and”; a condition that tells them apart may be missing. Identical values can stand only once.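 Method: 48-hour compound exposure of cells in 96-well plates, five concentrations, linear interpolation of endpoints. GI50 = concentration required for 50% inhibition of growth. The concentration for full growth arrest is given as TGI.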

Some test systems named below: TK-10 renal; SF-268 CNS; OVCAR-5 ovarian; NCI-H226 lung; NCI-H460 lung; UO-31 renal; NCI-H23 lung; OVCAR-4 ovarian; HCT-15 colon.
Common to all, as to assay: NCI anticancer screen, dose series, 48 h

For the compound `CC1=C(C(=O)Nc2ccc([N+](=O)[O-])cc2)C(c2ccco2)C(C(=O)Nc2ccc([N+](=O)[O-])cc2)=C(C)N1`, the TGI is 94.3 µM in the experiment with TK-10 renal; > 100 µM in the experiment with SF-268 CNS; > 100 µM in the experiment on OVCAR-5 ovarian; > 100 µM in the experiment on NCI-H226 lung; > 100 µM in the experiment with NCI-H460 lung; 60.1 µM in the experiment with UO-31 renal. Also, the TGI came to 65.9 µM in the experiment with NCI-H23 lung and 46.7 µM in the experiment with OVCAR-4 ovarian.
In the case of `Cc1cc(Br)cc(C)c1NC(=O)C(=O)CC(=O)c1sc(-n2nc(-c3ccccc3)cc2-c2ccccc2)nc1C`, the TGI with HCT-15 colon, in the experiment with TK-10 renal, in the experiment on SF-268 CNS, in the experiment on OVCAR-5 ovarian, in the experiment with NCI-H226 lung and in the experiment on NCI-H460 lung was > 100 µM throughout. Also, the TGI with UO-31 renal, with NCI-H23 lung and in the experiment with OVCAR-4 ovarian was > 100 µM each time.
For `O/N=C1/C(=C/c2ccc(F)cc2)CCCC1C(NO)c1ccc(F)cc1` (stereo unspecified), the TGI in the experiment on HCT-15 colon was > 100 µM; with TK-10 renal it was > 100 µM; in the experiment with SF-268 CNS, > 100 µM; in the experiment with NCI-H460 lung, > 100 µM; with UO-31 renal, 72.5 µM; with NCI-H23 lung, 51.7 µM. Moreover, the TGI with OVCAR-4 ovarian is > 100 µM.
In the case of `Cn1ncc2cc3c(Nc4ccc(Cl)cc4)cccc3nc21`, the TGI in the experiment with HCT-15 colon was 37.5 µM; in the experiment on TK-10 renal, > 100 µM; in the experiment on SF-268 CNS it was > 100 µM; in the experiment on NCI-H460 lung, 32 µM; with UO-31 renal, 88.7 µM; in the experiment on NCI-H23 lung, > 100 µM. Also, the TGI in the experiment with OVCAR-4 ovarian is 40 µM.
Take `CCCCCCC(=O)C/C(CCC(=O)N(Cc1ccccc1)Cc1ccccc1)=N\Nc1ccc([N+](=O)[O-])cc1[N+](=O)[O-]`: the TGI in the experiment on HCT-15 colon, in the experiment on TK-10 renal, in the experiment on SF-268 CNS, with OVCAR-5 ovarian, with NCI-H226 lung and with NCI-H460 lung was > 100 µM each time. The TGI in the experiment on UO-31 renal, in the experiment on NCI-H23 lung and with OVCAR-4 ovarian was > 100 µM throughout.
As to `O=C1C2=C(c3ccccc31)C(c1ccc(Cl)cc1)N1C(=O)CCSC1=N2` (stereo unspecified), the TGI in the experiment with HCT-15 colon, in the experiment with TK-10 renal, in the experiment with SF-268 CNS, in the experiment with OVCAR-5 ovarian, with NCI-H226 lung and in the experiment with UO-31 renal was > 100 µM in each case. Besides, the TGI in the experiment on NCI-H23 lung and in the experiment with OVCAR-4 ovarian was > 100 µM in each case.
Turning to `C=C(c1ccccc1N)[C@@]1(O)C[C@H](/C(=C\C)CO)C[C@@H]1NCc1ccccc1`, the TGI with HCT-15 colon was > 100 µM; in the experiment on TK-10 renal, 44.1 µM; in the experiment with SF-268 CNS it was > 100 µM; in the experiment with NCI-H226 lung it was 33.4 µM; in the experiment with NCI-H460 lung, 42.8 µM; with UO-31 renal, 42.3 µM. The TGI with NCI-H23 lung and in the experiment on OVCAR-4 ovarian was > 100 µM each time.
Turning to `S=c1[nH]nc(COc2ccc(Cl)cc2)o1`, the TGI with HCT-15 colon was 98.6 µM; in the experiment with TK-10 renal, > 100 µM; in the experiment on SF-268 CNS, > 100 µM; with OVCAR-5 ovarian, > 100 µM; in the experiment with NCI-H226 lung, > 100 µM; in the experiment with NCI-H460 lung it was > 100 µM. Further, the TGI with UO-31 renal, in the experiment with NCI-H23 lung and in the experiment with OVCAR-4 ovarian was > 100 µM throughout.
For `CC(Cl)(/C=C/Cl)C(Cl)/C=C/C(Cl)(CCl)CBr` (stereo unspecified), the TGI in the experiment with HCT-15 colon was 4.24 µM; in the experiment on TK-10 renal it was 20.5 µM; in the experiment with SF-268 CNS, 11.3 µM; with OVCAR-5 ovarian, 29.5 µM; in the experiment on NCI-H226 lung, 22.9 µM; in the experiment with NCI-H460 lung, 15.4 µM. The TGI came out at 28.6 µM in the experiment with UO-31 renal, 7.16 µM in the experiment on NCI-H23 lung and 9.36 µM in the experiment on OVCAR-4 ovarian.
Take `Cc1ccc2c(c1)NC(c1ccc(C(=O)O)cc1)c1cccn1-2` (stereo unspecified): the TGI in the experiment on HCT-15 colon, in the experiment on TK-10 renal, in the experiment with OVCAR-5 ovarian, in the experiment on NCI-H226 lung, in the experiment with NCI-H460 lung and with NCI-H23 lung was > 100 µM in each case. Moreover, in the experiment on OVCAR-4 ovarian, the TGI turned out to be 64 µM.
Regarding `CC(C)=CC(=O)CC(=O)C(=O)Nc1ccc(C)c(C)c1`, the TGI in the experiment with HCT-15 colon, with TK-10 renal, in the experiment on SF-268 CNS, in the experiment on NCI-H226 lung, in the experiment with UO-31 renal and in the experiment with NCI-H23 lung was > 100 µM in each case.
Regarding `Cn1nc(-c2ccccc2NC(=O)C(F)(F)F)c(=O)n(C)c1=S`, the TGI with TK-10 renal was > 100 µM; with SF-268 CNS, 56 µM; in the experiment on OVCAR-5 ovarian, > 100 µM; in the experiment with NCI-H226 lung it was > 100 µM; with NCI-H460 lung, 64.1 µM; in the experiment on UO-31 renal, 74.4 µM. Besides, the TGI in the experiment on NCI-H23 lung was 80.8 µM; with OVCAR-4 ovarian it was 62.3 µM.
`CC1=C(C(=O)Nc2ccccc2)C(c2ccc3c(c2)OCO3)C(C(=O)Nc2ccccc2)=C(C)N1`: the TGI in the experiment with HCT-15 colon, in the experiment with TK-10 renal, in the experiment on SF-268 CNS, with NCI-H226 lung, in the experiment with NCI-H460 lung and in the experiment on UO-31 renal was > 100 µM in each case. Further, the TGI in the experiment on NCI-H23 lung is > 100 µM; in the experiment on OVCAR-4 ovarian, 81.4 µM.
As for `CCOC(=O)CCC(NC(=O)c1ccc(N=Cc2nc3cc(C(F)(F)F)ccc3nc2-c2ccccc2)cc1)C(=O)OCC` (stereo unspecified), the GI50 was > 100 µM in the experiment with HCT-15 colon; 21.6 µM in the experiment on TK-10 renal; 22.9 µM with SF-268 CNS; > 100 µM in the experiment with OVCAR-5 ovarian; > 100 µM with NCI-H226 lung; > 100 µM in the experiment on NCI-H460 lung. For the same compound, the GI50 in the experiment with UO-31 renal is > 100 µM; with NCI-H23 lung, 28.9 µM; in the experiment with OVCAR-4 ovarian it was > 100 µM. The TGI is > 100 µM in the experiment on HCT-15 colon; 29.5 µM and 58.2 µM in the experiment with TK-10 renal; 31.8 µM and > 100 µM in the experiment with SF-268 CNS; > 100 µM with OVCAR-5 ovarian; > 100 µM in the experiment with NCI-H226 lung; 50 µM and > 100 µM in the experiment with NCI-H460 lung. Further, the TGI was > 100 µM in the experiment on UO-31 renal; 21.6 µM and > 100 µM with NCI-H23 lung; 50 µM and > 100 µM in the experiment on OVCAR-4 ovarian.

The values are drawn from PubChem BioAssay (NCI).
